# Experimental data taken from ChEMBL document CHEMBL1201862, “PubChem BioAssay data set” (2004).
# Active and inactive are the calls of the source.
# Columns and labels:
# Hexokinase HKDC1 = target: T1, Hexokinase HKDC1 (Homo sapiens, UniProt Q2TB90); assay: inhibition of HKDC1 glucose phosphorylation – biochemical, W721R variant, dose response (AID 504729); assay type: functional
# T1 sequence (Q2TB90 whole entry): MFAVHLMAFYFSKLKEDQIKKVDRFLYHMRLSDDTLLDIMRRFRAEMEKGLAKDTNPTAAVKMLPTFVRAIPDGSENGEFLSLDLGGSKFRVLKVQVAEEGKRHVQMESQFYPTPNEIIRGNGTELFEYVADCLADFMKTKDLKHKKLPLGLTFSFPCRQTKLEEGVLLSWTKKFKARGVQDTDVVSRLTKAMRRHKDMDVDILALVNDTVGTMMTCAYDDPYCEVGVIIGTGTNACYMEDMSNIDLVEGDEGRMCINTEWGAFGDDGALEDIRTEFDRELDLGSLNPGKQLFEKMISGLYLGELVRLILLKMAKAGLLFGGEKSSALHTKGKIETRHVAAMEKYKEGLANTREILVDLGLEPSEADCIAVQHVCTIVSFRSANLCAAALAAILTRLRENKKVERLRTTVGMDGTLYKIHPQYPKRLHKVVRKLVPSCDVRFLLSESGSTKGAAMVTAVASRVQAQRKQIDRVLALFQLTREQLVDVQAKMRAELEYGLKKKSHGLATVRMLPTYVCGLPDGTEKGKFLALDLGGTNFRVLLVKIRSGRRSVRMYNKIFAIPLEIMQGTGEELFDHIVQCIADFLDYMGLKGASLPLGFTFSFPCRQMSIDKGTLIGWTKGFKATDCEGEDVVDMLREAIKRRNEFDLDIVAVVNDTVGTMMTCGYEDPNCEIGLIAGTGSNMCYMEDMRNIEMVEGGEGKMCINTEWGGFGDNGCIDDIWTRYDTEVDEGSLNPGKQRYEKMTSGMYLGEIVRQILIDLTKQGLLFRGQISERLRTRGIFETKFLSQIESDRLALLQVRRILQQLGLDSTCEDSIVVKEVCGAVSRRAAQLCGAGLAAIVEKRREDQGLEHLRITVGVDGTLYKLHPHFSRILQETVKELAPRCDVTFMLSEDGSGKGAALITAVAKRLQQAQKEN
# [1] = target: Induced myeloid leukemia cell differentiation protein Mcl-1 (Homo sapiens, UniProt Q07820); assay type: functional
# Chain of Induced myeloid leukemia cell differentiation protein Mcl-1 (Q07820 whole entry): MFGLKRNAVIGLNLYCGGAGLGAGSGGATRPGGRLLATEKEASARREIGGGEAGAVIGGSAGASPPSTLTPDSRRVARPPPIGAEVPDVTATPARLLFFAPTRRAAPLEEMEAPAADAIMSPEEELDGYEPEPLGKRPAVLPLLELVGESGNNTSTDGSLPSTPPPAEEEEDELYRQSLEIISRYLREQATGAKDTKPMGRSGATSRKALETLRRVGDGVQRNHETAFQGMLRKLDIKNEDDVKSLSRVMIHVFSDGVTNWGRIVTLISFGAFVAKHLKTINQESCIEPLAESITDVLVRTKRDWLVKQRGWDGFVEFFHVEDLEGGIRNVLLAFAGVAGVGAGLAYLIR
# Beta-galactosidase = Beta-galactosidase (Escherichia coli, UniProt Q8VNN2); assay: detection-enzyme interference by beta-gal modulators – biochemical, E. coli enzyme, set 3, artefact control for CCR6 antagonist project, dose response (AID 504712); assay type: functional
# Chain of Beta-galactosidase (Q8VNN2 whole entry): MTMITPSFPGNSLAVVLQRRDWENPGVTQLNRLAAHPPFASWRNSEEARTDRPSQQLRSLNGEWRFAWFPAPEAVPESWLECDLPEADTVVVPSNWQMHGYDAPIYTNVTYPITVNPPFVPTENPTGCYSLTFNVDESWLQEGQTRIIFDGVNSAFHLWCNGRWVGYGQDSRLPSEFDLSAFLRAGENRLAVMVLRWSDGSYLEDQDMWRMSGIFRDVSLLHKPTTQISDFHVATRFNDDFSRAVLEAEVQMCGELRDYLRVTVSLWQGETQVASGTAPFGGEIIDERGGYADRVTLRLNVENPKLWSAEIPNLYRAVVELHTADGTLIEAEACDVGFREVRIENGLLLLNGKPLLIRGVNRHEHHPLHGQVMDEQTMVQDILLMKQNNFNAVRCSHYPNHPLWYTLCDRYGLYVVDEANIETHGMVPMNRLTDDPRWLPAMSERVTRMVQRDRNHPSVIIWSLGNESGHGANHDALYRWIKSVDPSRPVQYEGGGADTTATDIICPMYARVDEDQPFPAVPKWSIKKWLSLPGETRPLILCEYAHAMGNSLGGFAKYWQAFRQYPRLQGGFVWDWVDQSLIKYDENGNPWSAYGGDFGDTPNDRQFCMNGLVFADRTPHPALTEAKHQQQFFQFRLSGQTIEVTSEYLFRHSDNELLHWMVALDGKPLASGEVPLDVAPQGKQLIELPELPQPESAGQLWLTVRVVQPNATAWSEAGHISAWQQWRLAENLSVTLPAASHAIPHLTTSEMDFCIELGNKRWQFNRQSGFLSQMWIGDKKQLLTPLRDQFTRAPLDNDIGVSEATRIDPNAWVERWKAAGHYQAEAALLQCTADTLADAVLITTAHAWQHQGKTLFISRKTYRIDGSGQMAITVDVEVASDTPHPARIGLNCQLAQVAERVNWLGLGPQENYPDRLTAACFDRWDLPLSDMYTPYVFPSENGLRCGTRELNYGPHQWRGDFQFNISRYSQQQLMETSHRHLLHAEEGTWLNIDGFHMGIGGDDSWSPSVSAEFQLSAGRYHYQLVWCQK
# [2] = target: Eukaryotic translation initiation factor 4E (Mus musculus, UniProt P63073); assay: blockers of eIF4G binding by eIF4E – biochemical, TR-FRET, dose response (AID 855); assay type: functional;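 also: potency for disrupting eIF4E binding to eIF4GI seen as loss of FRET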
# Chain of Eukaryotic translation initiation factor 4E (P63073 whole entry): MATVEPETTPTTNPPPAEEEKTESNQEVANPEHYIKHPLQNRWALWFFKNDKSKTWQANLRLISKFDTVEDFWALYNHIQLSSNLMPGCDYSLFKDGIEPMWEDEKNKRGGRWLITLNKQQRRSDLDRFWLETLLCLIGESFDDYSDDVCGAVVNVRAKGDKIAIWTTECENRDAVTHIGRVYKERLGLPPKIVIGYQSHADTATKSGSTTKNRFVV
# [3] = target: C-C chemokine receptor type 6 (Homo sapiens, UniProt P51684); assay: antagonism of CCR6 beta-arrestin recruitment – cell-based, luminescent beta-arrestin readout, dose response (AID 504728); assay type: functional
# Chain of C-C chemokine receptor type 6 (P51684 whole entry): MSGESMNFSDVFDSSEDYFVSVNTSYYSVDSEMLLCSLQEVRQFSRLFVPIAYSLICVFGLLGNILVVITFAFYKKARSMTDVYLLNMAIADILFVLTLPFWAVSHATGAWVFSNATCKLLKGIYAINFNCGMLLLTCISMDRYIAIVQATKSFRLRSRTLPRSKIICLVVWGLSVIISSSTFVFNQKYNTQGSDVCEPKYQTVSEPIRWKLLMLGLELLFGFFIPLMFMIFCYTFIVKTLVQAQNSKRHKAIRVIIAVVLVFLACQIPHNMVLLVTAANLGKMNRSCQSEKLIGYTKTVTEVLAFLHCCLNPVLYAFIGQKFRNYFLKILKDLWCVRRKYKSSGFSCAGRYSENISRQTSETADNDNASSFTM
# SUMO-activating enzyme [4] = target: T2, SUMO-activating enzyme (Homo sapiens, UniProt Q9UBT2); assay: blockers of SAE1/SAE2–UBC9 SUMO transfer – biochemical, HTRF, uHTS, primary screen (AID 2006); assay type: protein-complex assay
# T2 sequence (Q9UBE0 whole entry): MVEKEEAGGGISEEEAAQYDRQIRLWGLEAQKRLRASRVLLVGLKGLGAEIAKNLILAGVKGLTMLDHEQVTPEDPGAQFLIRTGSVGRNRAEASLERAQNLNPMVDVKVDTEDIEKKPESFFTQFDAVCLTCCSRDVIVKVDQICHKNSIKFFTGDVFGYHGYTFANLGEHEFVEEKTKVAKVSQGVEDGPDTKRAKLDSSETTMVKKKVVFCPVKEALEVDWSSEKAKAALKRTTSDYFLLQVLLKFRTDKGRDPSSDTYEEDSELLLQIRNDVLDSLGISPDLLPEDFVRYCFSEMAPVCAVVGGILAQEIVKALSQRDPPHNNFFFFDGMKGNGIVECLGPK
# T2 sequence (Q9UBT2 whole entry): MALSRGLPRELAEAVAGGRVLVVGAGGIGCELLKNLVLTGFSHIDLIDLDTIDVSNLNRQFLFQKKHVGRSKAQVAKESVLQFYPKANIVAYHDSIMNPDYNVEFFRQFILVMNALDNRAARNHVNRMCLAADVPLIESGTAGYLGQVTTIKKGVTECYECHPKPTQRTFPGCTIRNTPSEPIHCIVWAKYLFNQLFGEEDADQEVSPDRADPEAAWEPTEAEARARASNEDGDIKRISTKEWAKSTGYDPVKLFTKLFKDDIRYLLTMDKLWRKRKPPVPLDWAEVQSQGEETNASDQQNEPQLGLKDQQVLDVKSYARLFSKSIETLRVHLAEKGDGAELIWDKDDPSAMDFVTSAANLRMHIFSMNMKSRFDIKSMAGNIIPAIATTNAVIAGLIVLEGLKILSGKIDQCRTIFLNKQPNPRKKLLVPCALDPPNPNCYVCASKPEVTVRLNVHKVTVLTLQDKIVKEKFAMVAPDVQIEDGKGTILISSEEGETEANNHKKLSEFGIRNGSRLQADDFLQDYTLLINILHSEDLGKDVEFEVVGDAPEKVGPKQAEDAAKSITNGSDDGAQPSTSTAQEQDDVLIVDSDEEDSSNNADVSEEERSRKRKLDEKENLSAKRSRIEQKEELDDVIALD
# [5] = target: T3, Zinc finger protein mex-5 (Caenorhabditis elegans, UniProt Q9XUB2); assay: potency of MEX-5 RNA-binding blockers – biochemical, C. elegans, fluorescence polarization, dose response (AID 1960)
# T3 sequence (Q9XUB2 whole entry): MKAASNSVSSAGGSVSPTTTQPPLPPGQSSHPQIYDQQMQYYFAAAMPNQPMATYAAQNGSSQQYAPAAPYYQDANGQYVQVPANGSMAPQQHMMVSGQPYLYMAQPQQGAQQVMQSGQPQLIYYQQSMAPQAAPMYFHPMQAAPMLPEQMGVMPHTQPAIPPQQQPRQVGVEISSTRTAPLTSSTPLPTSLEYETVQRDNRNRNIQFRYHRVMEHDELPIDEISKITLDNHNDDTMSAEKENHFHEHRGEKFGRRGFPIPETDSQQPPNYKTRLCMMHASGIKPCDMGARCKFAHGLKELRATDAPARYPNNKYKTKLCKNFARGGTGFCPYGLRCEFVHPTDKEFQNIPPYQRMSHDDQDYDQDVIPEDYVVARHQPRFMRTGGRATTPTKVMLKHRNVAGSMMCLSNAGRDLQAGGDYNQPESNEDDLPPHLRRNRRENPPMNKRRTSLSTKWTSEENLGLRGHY
# [6] = target: T4, RNA-binding protein pos-1 (Caenorhabditis elegans, UniProt G5EF15); assay: disruptors of C. elegans POS-1 RNA interaction – biochemical, fluorescence polarization, dose response (AID 1964);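 also: purified POS-1 fused to maltose binding protein made in E. coli; potency of compounds blocking POS-1 binding to fluorescent RNA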
# T4 sequence (G5EF15 whole entry): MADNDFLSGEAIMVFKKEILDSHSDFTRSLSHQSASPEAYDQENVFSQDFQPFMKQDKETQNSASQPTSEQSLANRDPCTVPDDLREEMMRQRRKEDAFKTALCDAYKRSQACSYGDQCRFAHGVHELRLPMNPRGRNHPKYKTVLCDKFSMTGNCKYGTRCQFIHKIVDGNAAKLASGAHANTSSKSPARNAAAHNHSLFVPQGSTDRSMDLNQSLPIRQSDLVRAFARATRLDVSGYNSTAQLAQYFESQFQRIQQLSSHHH
# Leucine aminopeptidase = target: T5, Leucine aminopeptidase (Plasmodium falciparum 3D7, UniProt Q8IL11); assay: P. falciparum M17LAP inhibitors, primary screen, biochemical, fluorogenic H-Leu-NHMec substrate, 1536-well (AID 1619); assay type: functional
# T5 sequence (Q8IL11 whole entry): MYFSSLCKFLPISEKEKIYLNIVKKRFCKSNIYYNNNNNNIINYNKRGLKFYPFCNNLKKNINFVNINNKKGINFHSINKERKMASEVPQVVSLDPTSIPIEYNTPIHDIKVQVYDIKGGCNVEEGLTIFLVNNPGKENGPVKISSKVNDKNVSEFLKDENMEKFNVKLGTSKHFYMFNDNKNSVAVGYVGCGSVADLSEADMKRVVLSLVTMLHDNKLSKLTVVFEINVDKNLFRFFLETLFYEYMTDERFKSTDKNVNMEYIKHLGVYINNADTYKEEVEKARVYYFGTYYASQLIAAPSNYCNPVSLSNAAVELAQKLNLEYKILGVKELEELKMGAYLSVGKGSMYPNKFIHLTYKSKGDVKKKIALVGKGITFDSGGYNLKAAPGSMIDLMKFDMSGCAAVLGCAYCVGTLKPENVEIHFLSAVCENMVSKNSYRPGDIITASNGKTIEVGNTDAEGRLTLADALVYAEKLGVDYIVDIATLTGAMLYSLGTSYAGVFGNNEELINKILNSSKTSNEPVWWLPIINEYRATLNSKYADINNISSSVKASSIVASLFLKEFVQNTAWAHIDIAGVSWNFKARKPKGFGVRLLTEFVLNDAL
# SUMO-activating enzyme [7] = target: T2, SUMO-activating enzyme; assay: blockers of UBC9-mediated SUMO conjugation – biochemical, AlphaScreen, SUMOylation inhibitor project, confirmation (AID 2018); assay type: functional
# [8] = target: Melanin-concentrating hormone receptor 1 (Homo sapiens, UniProt Q99705); assay: Late-stage fluorescence-based counterscreen for antagonists of the G-protein coupled receptor 7 (GPR7): cell-based dose response assay to identify antagonists of the melanin-concentrating hormone receptor 1 (MCHR1). [Related pubchem assays (depositor defined):AID1861, AID1880, AID1952, AID2148, AID2251, AID2257, AID485339]; assay type: functional;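 also: stimulated with 30 nM MCH peptide agonist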
# Chain of Melanin-concentrating hormone receptor 1 (Q99705 whole entry): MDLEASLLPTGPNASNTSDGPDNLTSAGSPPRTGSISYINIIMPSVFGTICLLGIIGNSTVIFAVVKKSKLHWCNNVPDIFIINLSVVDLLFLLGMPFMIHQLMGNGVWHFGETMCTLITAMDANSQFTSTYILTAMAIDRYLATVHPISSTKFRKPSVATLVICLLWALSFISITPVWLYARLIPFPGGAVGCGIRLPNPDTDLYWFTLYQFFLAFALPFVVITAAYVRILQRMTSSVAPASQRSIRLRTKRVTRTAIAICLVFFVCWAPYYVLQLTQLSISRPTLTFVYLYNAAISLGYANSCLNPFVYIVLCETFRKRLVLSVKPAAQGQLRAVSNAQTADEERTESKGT
# HEK293 = assay: cells; conditions: Homo sapiens;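 also: cells exposed to compound for 14 hours overnight before viability readout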
# Tumor necrosis factor = Tumor necrosis factor (Homo sapiens, UniProt P01375); assay: analog potency on TNFa NF-kB signaling – cell-based, revised, SAR follow-up (AID 2337); assay type: functional
# Chain of Tumor necrosis factor (P01375 whole entry, the tested form may be a part): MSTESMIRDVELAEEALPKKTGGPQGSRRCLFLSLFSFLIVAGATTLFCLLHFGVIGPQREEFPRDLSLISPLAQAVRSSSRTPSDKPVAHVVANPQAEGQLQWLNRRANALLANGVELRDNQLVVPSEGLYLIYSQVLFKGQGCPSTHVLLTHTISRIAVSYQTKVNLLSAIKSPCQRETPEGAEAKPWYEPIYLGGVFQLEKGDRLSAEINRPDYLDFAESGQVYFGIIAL
# [9] = target: Nucleotide-binding oligomerization domain-containing protein 1 (Homo sapiens, UniProt Q9Y239); assay: blockers of NOD1 pathway activity – revised, SAR follow-up (AID 2333); assay type: functional
# Chain of Nucleotide-binding oligomerization domain-containing protein 1 (Q9Y239 whole entry, the tested form may be a part): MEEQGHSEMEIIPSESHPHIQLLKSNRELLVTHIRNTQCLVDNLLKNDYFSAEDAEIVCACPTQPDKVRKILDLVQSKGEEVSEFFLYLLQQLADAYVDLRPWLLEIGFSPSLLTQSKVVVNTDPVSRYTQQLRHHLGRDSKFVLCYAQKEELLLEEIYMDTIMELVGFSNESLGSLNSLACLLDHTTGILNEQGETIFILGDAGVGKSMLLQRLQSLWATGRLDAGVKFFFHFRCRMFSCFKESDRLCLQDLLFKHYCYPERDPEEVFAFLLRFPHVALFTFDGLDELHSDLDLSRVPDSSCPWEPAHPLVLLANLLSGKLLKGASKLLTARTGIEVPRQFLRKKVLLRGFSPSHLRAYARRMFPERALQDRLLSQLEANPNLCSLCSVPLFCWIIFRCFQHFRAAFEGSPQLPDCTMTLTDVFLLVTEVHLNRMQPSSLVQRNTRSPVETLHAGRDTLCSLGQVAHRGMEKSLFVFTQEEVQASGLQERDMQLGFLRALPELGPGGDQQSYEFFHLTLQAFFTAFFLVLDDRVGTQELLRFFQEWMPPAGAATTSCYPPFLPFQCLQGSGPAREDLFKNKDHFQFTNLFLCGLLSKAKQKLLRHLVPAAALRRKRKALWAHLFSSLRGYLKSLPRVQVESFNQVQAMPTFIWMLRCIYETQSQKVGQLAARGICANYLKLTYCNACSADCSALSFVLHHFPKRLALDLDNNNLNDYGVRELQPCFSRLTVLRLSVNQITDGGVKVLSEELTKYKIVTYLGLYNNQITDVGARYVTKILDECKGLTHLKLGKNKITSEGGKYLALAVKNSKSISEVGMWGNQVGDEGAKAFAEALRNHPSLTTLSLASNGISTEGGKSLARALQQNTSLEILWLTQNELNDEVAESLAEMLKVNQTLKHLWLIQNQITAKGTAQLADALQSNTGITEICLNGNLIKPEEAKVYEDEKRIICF
# X-box-binding protein 1 = X-box-binding protein 1 (Homo sapiens, UniProt P17861); assay type: functional, Cricetulus griseus;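 also: confirmatory dose-response counter-screen serving a CHOP assay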
# Chain of X-box-binding protein 1 (P17861 whole entry): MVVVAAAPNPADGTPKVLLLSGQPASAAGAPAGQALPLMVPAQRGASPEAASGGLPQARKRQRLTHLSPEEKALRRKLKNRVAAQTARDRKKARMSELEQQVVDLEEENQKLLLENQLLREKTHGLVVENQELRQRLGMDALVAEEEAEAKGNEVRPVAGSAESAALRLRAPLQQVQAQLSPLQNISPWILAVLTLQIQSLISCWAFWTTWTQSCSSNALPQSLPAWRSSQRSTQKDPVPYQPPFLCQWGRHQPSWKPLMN
# [10] = Luminescence Cell-Based Dose Retest to Confirm Inhibitors of Cancer Stem Cells. [Related pubchem assays (depositor defined):AID2717, AID2721]; assay type: functional; conditions: Homo sapiens
# [11] = protection from phage-mediated lysis, alamar blue read-out – E. coli UTI89, K1F phage, bacterial capsule biogenesis inhibitors (AID 488966); assay type: functional
# 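For AC50 in this document: cells exposed to compound for roughly 70 hours or longer before luminescence read.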
smiles,measurement,setting,value
CCOC(=O)c1ccc(NC(=O)CSc2n[nH]c(-c3ccncc3)n2)cc1,IC50,Hexokinase HKDC1,12.1 µM (active)
COc1ccc(N2C(=O)/C(=C/C=C/c3ccccc3[N+](=O)[O-])C(=O)NC2=S)cc1,IC50,[1],0.73 µM (active)
same,IC50,Beta-galactosidase,> 66.6 µM (inactive)
same,IC50,[2],50 µM (inactive)
same,IC50,[3],> 66.6 µM (inactive)
CC1=C(C#N)C(=O)NC(=O)/C1=C\c1ccc(-c2ccc(C)cc2[N+](=O)[O-])o1,IC50,[1],2.68 µM (active)
same,IC50,SUMO-activating enzyme [4],35.6 µM (active)
same,EC50,[5],21.8 µM (active)
same,IC50,[2],50 µM (inactive)
same,EC50,[6],36.4 µM (active)
same,IC50,Leucine aminopeptidase,13.1 µM (active)
same,IC50,SUMO-activating enzyme [7],5.46 µM (active)
Cc1ccc(-n2ncc(Cl)c(OC3CCN(C(=O)OC(C)(C)C)CC3)c2=O)cc1,IC50,[8],5 µM (active)
CC1CCc2c(sc(NC(=O)c3ccc(Cl)cc3)c2C(=O)O)C1 (centres undefined),IC50,HEK293,5.2 µM (active)
same,IC50,Tumor necrosis factor,4.41 µM (active)
same,IC50,[9],1.37 µM (active)
C/N=C1\SC(CC(=O)Nc2ccc(F)cc2F)C(=O)N1/N=C/c1ccc(OC(F)F)c(OC)c1 (centres undefined),Absolute IC50 (XBP1),X-box-binding protein 1,10 µM
O=C(N/N=C/c1cccc(O)c1)c1ccc(COc2ccccc2Br)cc1,AC50,[10],4.82 µM (active)
same,IC50,[11],> 150 µM (active)
